# pIC50, pKd: −log10 of the molar value. Like-named read-outs stand apart in the source and are kept apart here.
# Key:
# [1] = target: T1, FGF-R1C ECD (Homo sapiens, UniProt P11362); assay: biochemical
# T1 sequence (P11362 22-376 limits assumed): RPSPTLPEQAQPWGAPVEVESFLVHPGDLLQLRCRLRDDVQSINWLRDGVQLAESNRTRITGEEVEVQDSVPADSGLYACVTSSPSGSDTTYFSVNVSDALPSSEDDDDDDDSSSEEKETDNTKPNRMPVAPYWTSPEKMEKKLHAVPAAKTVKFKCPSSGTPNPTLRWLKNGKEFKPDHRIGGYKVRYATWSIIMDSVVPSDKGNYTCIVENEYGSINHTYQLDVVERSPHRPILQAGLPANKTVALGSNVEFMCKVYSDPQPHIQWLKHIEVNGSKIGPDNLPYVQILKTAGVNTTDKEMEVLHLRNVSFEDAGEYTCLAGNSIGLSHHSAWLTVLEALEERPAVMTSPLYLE
# In short: (§1)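 Streptavidin biosensors carrying biotinylated FGF receptor ECD were immersed in peptide (~1 μM for crude single-point runs, a concentration series for purified peptides) and then in peptide-free buffer. KD was obtained by fitting the BLI association and dissociation curves.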
# [2] = target: T2, FGF-R3C ECD (Homo sapiens, UniProt P22607); assay: biochemical
# T2 sequence (P22607 23-375 limits assumed): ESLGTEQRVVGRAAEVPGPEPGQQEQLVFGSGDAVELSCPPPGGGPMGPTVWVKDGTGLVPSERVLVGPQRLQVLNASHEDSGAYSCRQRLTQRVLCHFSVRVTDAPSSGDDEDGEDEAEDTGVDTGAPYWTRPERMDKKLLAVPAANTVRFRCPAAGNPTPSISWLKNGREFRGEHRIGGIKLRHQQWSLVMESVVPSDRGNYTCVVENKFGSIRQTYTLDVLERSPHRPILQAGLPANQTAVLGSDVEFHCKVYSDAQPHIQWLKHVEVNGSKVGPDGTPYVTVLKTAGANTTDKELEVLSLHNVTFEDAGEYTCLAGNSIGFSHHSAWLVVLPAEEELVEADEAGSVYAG
# In short: as §1
# [3] = target: T3, FGF-R4 ECD (Homo sapiens, UniProt P22455); assay: multi-concentration BLI of purified peptides; assay type: binding; conditions: purified NNK library peptides
# T3 construct: DNA constructs for the extracellular domain (ECD) of human FGF-; HPC4 (C); made in house; host or cells: HEK 293-6E
# T3 sequence (P22455 22-369 limits assumed): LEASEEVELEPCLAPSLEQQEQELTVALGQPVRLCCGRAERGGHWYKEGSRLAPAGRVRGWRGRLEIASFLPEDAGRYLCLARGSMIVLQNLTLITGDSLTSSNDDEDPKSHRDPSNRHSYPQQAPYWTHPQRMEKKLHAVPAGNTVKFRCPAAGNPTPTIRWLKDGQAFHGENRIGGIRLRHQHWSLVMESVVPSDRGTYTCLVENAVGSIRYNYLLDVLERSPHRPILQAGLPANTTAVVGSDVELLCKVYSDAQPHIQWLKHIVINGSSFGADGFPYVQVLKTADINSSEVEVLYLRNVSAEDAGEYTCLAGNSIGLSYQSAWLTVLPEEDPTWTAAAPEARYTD
# In short: as §1
# [4] = target: T3, FGF-R4 ECD; assay: single concentration BLI of crude peptides; assay type: binding; conditions: crude NNK peptides, single concentration BLI (Table S3); read-out: KD (4)
# In short: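 Biotinylated FGF-R ECD on streptavidin biosensors was dipped into ~1 μM crude peptide in PBS pH7.4 with 0.05% Tween-20 and 0.01% BSA for association, then into buffer for dissociation, and followed by BLI. Fitted KD values were adjusted for peptide concentration measured by UPLC-CAD.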
# [5] = target: T4, FGFR1c/KLB (Fc-fused human FGF-R1alpha(IIIc) with beta-klotho) (Homo sapiens, UniProt P11362); assay: AlphaScreen FGF21 competitive binding assay
# T4 sequence (P11362 22-376 limits assumed): T1 sequence (P11362 22-376 limits assumed)
# [6] = target: T5, FGFR3c/BKL (Fc-fused human FGF-R3alpha(IIIc) with beta-klotho) (Homo sapiens, UniProt P22607); assay: AlphaScreen FGF21 competitive binding assay
# T5 sequence (P22607 23-375 limits assumed): T2 sequence (P22607 23-375 limits assumed)
# Protocol: Alphascreen binding assay
# (§2) The competitive binding assay was carried out according to the methods detailed in Hansen. et al using
# (§3) AlphaScreen.3 All reagents and samples were prepared in assay buffer: 40mM Hepes, 140mM NaCl, 1mM
# (§4) CaCl2, 0,05% Tween20, pH=7.5, 0.1% BSA. In brief, recombinant human beta-klotho (R&D Systems) was
# (§5) preincubated for 60 min with the ectodomain, either Fc-fused human FGF-R1alpha(IIIc), FGF-R3alpha(IIIc)
# (§6) or FGF-R4 (R&D Systems), and the mixture was added to the test peptides in OptiPlate™ (PerkinElmer).
# (§7) Biotinylated FGF21 and heparin were further added to each well. AlphaScreen bead mix (1:1 mix of Protein
# (§8) A acceptor beads/ streptavidin-coated donor beads, PerkinElmer) were added to each well incubated
# (§9) overnight at RT in the dark, and measured on a plate reader (Envision). Assays were carried out in triplicates
# (§10) with concentrations ranging from 3, 10, 30, 100, 300 ,1000 and 3000 nM of peptide. No peptide control
# (§11) (media only) was used as a negative control, and unlabeled FGF21 and FGF1 as positive control.
# (§12) competing with biotinylated natural FGF21 ligand.
# [7] = target: T6, FGFR4/KLB (Fc-fused human FGF-R4 with beta-klotho) (Homo sapiens, UniProt P22455); assay: AlphaScreen FGF21 competitive binding assay
# T6 sequence (P22455 22-369 limits assumed): T3 sequence (P22455 22-369 limits assumed)
# Protocol: Alphascreen binding assay
# as §2, §3, §4, §5, §6, §7, §8, §9, §10, §11, §12
# [8] = target: T1, FGF-R1C ECD; assay: biochemical; assay type: binding; parameters: DNA constructs for the extracellular domain (ECD) of human FGF-; HPC4 (C); made in house; host or cells: HEK 293-6E
# In short: as §1
# [9] = target: T2, FGF-R3C ECD; assay: biochemical; assay type: binding; parameters: DNA constructs for the extracellular domain (ECD) of human FGF-; HPC4 (C); made in house; host or cells: HEK 293-6E
# In short: as §1
compound,measurement,setting,value
CC[C@H](C)[C@@H]1NC(=O)[C@@H](NC(=O)[C@@H](N)CCSC)CSSC[C@@H](C(=O)NCC(=O)N[C@@H](CO)C(=O)NCC(=O)N[C@@H](CO)C(=O)N[C@@H](CC(=O)O)C(=O)N[C@@H](Cc2ccc(O)cc2)C(=O)N[C@@H](CCCCN)C(=O)N[C@@H](CC(=O)O)C(=O)N[C@@H](CC(=O)O)C(=O)N[C@@H](CC(=O)O)C(=O)N[C@@H](CC(=O)O)C(=O)N[C@@H](CCCCN)C(N)=O)NC(=O)[C@@H]2CCCN2C(=O)[C@H]([C@@H](C)CC)NC(=O)[C@H](Cc2ccccc2)NC(=O)[C@@H]2CCCN2C(=O)[C@H](CCSC)NC(=O)[C@H](Cc2c[nH]cn2)NC(=O)[C@H]([C@@H](C)CC)NC(=O)[C@H](CC(=O)O)NC(=O)[C@H](Cc2ccccc2)NC1=O [3C.2],pKd,[1],< 6.00
same,pKd,[2],< 6.00
same,R3C KD (nM),"[2]; purified NNK library peptides, multi-concentration BLI",did not show any binding
same,pKd,[3],< 6.00
same,pKd,[4],< 5.00
same,pIC50,[5],< 6.00
same,pIC50,[6],< 6.00
same,pIC50,[7],< 6.00
same,pKd,[8],< 5.00
same,pKd,[9],< 5.00
